The test system of assay [1] is isolated jejunal segments from egg albumin-sensitised rats. In words: antigen-induced contraction of isolated jejunal segments, Examples 3 and 6. Also noted: species or system rat. Here is the method:
SGP-T, at doses as low as 6.8×10^−7M, reduced antigen induced contractions of these isolated intestinal tissues by 60% (data not shown).
Analogues and fragments of SGP-T were tested for their ability to inhibit antigen (egg albumin)-induced intestinal contractions, using isolated jejunal segments from egg albumin-sensitised rats, as described in Example 3.

The test system of assay [2] is rats sensitized to hen egg albumin. The assay is described as follows: intestinal anaphylaxis (diarrhoea, disrupted MMCs), egg albumin-sensitized rats, Example 3. Type of assay: in vivo, rat. Conditions: intravenously. The source says: SGP-T was also effective in preventing intestinal anaphylaxis.
The next assay relates to human neutrophils. The assay is described as follows: superoxide anion production in vitro, human neutrophils. Type of assay: cell-based. Conditions: for superoxide anion production: 10^−7M PMA. Here is the method:
Neutrophils (10^6) were suspended in PBS buffer of the following composition: NaCl 137 mM, KCl 2.7 mM, Na2HPO4, 8.1 mM, KH2PO4 1.47 mM, CaCl2 1.19 mM, MgCl2 0.54 mM, glucose 7.5 mM and cytochrome C 1.5 mM (Sigma Chemical Co. St. Louis, […].) incubated at 37 C. Each sample was read along with a reference sample containing 1440 units of superoxide dismutase (Sigma) in a spectrophotometer (Hitachi, U200 spectrophotometer). The rate of superoxide production in response to 10^−7M phorbol myristate acetate (PMA) or 10^−5 M N-formyl-methionyl-leucyl-phenylalanine (fMLP) was then inferred from the slope. (Derian et al., (1996), Biochemistry 35(4): 1265–9).
Neutrophils obtained either from carrageenin-soaked sponges implanted subcutaneously in rats, or from the blood of healthy human volunteers, were preincubated with various doses of SGP-T for 30 minutes, then stimulated with 10^−7M PMA and the rate of superoxide anion production determined. At doses less than 1 μM, SGP-T inhibited superoxide anion production by both rat and human neutrophils, although the rat neutrophils were approximately 10-fold less sensitive than human neutrophils to this inhibitor effect (FIG. 6). At higher doses of the peptide(>1 μM), an enhancement of superoxide anion production was evident with human neutrophils.
At 0.001 and 0.01 μM SGP-T, O2^− production was inhibited by 15 to 20% in human neutrophils, while 10-fold higher concentrations were required for such inhibition with rat neutrophils. Much higher concentrations of SGP-T (10 and 20 μM) stimulated O2^− production by human neutrophils. Each value is presented as the mean ±SEM, and the number of experiments was between 6 and 12.

Consider 1 substance from patent publication US7094760B2, “Peptides for treatment of inflammation and shock” (Salpep Biotechnology, Inc., priority 1996, dated 2006).

Consider “NH2-Thr-Asp-Ile-Phe-Glu-Gly-Gly-COOH (H-TDIFEGG-OH) [SGP-T, submandibular gland peptide T, TDIFEGG]”, for which the “Biological Activity = inhibition of antigen-induced jejunal contraction by test peptide” value in assay [1] is given as “+++ (+++ = highest inhibition (~60%))”. For the same substance, in assay [1] (doses as low as 6.8×10^−7M), the “reduction of antigen induced contractions of isolated intestinal tissues” value came to 60%. Besides, in assay [2] (100 μg/kg), the manifestation of anaphylaxis result is given as “totally prevented”. Besides, in assay [2] (doses as low as 10 μg/kg), the “anaphylactic reactions (diarrhoea, disruption of MMCs)” value is “significantly attenuated”. Moreover, the “O2− production” value in the assay on human neutrophils (10 and 20 μM) is on record as “stimulated”. The superoxide anion production entry in the assay with human neutrophils (doses less than 1 μM) is “inhibited”; with human neutrophils (higher doses (>1 μM)), “enhancement”.
